Measured values from publication PMC2917628 (FEBS letters, 2010).
Counter-ions that a name gives are not always drawn.

Experiments:
NIH 3T3 cells = details: ref [9]; cited from earlier work
[1] = tested on: LNCaP cells expressing Abi1 Y213F; test: flow cytometric uptake of Alexa Fluor 647; format: cell-based; details: 25 μM Alexa Fluor 647 hydrazide, 2 hours
[2] = tested on: macropinocytic uptake of pathogenic bacteria; details: ref [10],[11]; cited from earlier work
[3] = tested on: macropinocytic uptake and membrane ruffles; details: ref [21]; cited from earlier work
Rac1 activation = details: ref [25]; cited from earlier work

In the case of `O=c1cc(N2CCOCC2)oc2c(-c3ccccc3)cccc12` [LY294002], the “macropinocytic uptake of Alexa Fluor 594” value (NIH 3T3 cells) is listed as “inhibit macropinocytic uptake”.

In the case of `C/C1=C/C(=O)O[C@@H]2C[C@@H](CC[C@H](C)/C=C\C=C\CC1)O[C@@](O)([C@@H]1CSC(=O)N1)C2` [Latrunculin A, latrunculin A], the “macropinocytic uptake of Alexa Fluor 647 with latrunculin A, Abi1 Y213F cells” value ([1]; 0.2 μM latrunculin A, PDGF not added) is reported as “significant decrease”.

In the case of `Cc1ccc(NC(=O)c2ccc(CN3CCN(C)CC3)cc2)cc1Nc1nccc(-c2cccnc2)n1` [STI-571, Imatinib mesylate], the “macropinocytic uptake of pathogenic bacteria” value [2] is given as “inhibits macropinocytic uptake of pathogenic bacteria”.

In the case of `COC[C@H]1OC(=O)c2coc3c2[C@@]1(C)C1=C(C3=O)[C@@H]2CCC(=O)[C@@]2(C)C[C@H]1OC(C)=O` [wortmannin], the “macropinocytic uptake of Alexa Fluor 594” value (NIH 3T3 cells) is listed as “inhibit macropinocytic uptake” and the “macropinocytic uptake and formation of membrane ruffles” value [3] is listed as “inhibits macropinocytic uptake and the formation of membrane ruffles but not in all cells”.

B1: PDGF: PDGF BB (cat # 3201), Sigma-Aldrich (protein, UniProt P01127 82-190, looked up)
Platelet-derived growth …: SLGSLTIAEPAMIAECKTRTEVFEISRRLIDRTNANFLVWPPCVEVQRCSGCCNNRNVQCRPTQVQLRPVQVRKIEIVRKKPIFKKATVTLEDHLACKCETVAAARPVT
modifications: Platelet-derived growth factor subunit B homodimer
For B1, the “PDGF response of Alexa Fluor 647 uptake, Abi1 Y213F cells” value ([1]; 10 ng/ml PDGF) is given as “demonstrated PDGF response” and the “Rac1 activation following PDGF stimulation” value (Rac1 activation) is given as “enhanced Rac1 activation”.
